# Data from the supplement of paper PMC10307832.
# Legend:
# Test in all cases: relative viability (nuclei count vs DMSO), 5 days (fraction); higher = more cells survive
# A-427 = tested on: A-427
# Outline: (§1)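 Lung cancer cell lines were seeded in 1536-well plates and dosed by pin tool the next day, with either a single drug or a fixed anchor-drug dose combined with five library-drug doses (not always all listed) spaced in √10 steps. Five days later, one step fixed the cells and stained their nuclei (final 0.05% Triton X-100, 1% formaldehyde, 1 ug/ml Hoechst), and nuclei were counted on 4× images. Relative viability is the nuclei count in treated wells divided by the count in vehicle wells, and each value is the median of duplicate plates.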
# COR-L 105 = tested on: COR-L 105
# Outline: as §1
# H3255 = tested on: H3255
# Outline: as §1
# HCC-44 = tested on: HCC-44
# Outline: as §1
# HCC-827 = tested on: HCC-827
# Outline: as §1
# LCLC-103H = tested on: LCLC-103H
# Outline: as §1
# LOU-NH91 = tested on: LOU-NH91
# Outline: as §1
# LXF-289 = tested on: LXF-289
# Outline: as §1
# NCI-H1792 = tested on: NCI-H1792
# Outline: as §1
# NCI-H1793 = tested on: NCI-H1793
# Outline: as §1
# NCI-H1915 = tested on: NCI-H1915
# Outline: as §1
# NCI-H1944 = tested on: NCI-H1944
# Outline: as §1
# NCI-H1975 = tested on: NCI-H1975
# Outline: as §1
# NCI-H1993 = tested on: NCI-H1993
# Outline: as §1
# NCI-H2023 = tested on: NCI-H2023
# Outline: as §1
# NCI-H2087 = tested on: NCI-H2087
# Outline: as §1
# NCI-H2170 = tested on: NCI-H2170
# Outline: as §1
# NCI-H358 = tested on: NCI-H358
# Outline: as §1
# NCI-H520 = tested on: NCI-H520
# Outline: as §1
# SK-MES-1 = tested on: SK-MES-1
# Outline: as §1
# SW 1573 = tested on: SW 1573
# Outline: as §1
smiles,measurement,setting,value
Nc1cccc2c1CN(C1CCC(=O)NC1=O)C2=O (stereo not drawn) [Lenalidomide] + Cc1nc(NC(=O)N2CCC[C@H]2C(N)=O)sc1-c1ccnc(C(C)(C)C(F)(F)F)c1 [Alpelisib] (partner 2 µM),relative viability,A-427; first compound 0.253 µM,1.11
same,relative viability,A-427; first compound 2.53 µM,1.09
same,relative viability,A-427; first compound 8 µM,1.02
same,relative viability,COR-L 105; first compound 0.253 µM,0.982
same,relative viability,COR-L 105; first compound 0.8 µM,0.81
same,relative viability,COR-L 105; first compound 2.53 µM,1.07
same,relative viability,COR-L 105; first compound 8 µM,0.994
same,relative viability,H3255; first compound 0.253 µM,0.664
same,relative viability,H3255; first compound 0.8 µM,0.682
same,relative viability,H3255; first compound 2.53 µM,0.916
same,relative viability,H3255; first compound 8 µM,0.584
same,relative viability,HCC-44; first compound 0.253 µM,0.865
same,relative viability,HCC-44; first compound 0.8 µM,0.594
same,relative viability,HCC-44; first compound 2.53 µM,0.821
same,relative viability,HCC-44; first compound 8 µM,0.663
same,relative viability,HCC-827; first compound 0.253 µM,0.978
same,relative viability,HCC-827; first compound 0.8 µM,1.06
same,relative viability,HCC-827; first compound 2.53 µM,0.96
same,relative viability,HCC-827; first compound 8 µM,0.846
same,relative viability,LCLC-103H; first compound 0.253 µM,0.993
same,relative viability,LCLC-103H; first compound 0.8 µM,1
same,relative viability,LCLC-103H; first compound 2.53 µM,0.862
same,relative viability,LCLC-103H; first compound 8 µM,0.674
same,relative viability,LOU-NH91; first compound 0.253 µM,0.686
same,relative viability,LOU-NH91; first compound 0.8 µM,0.762
same,relative viability,LOU-NH91; first compound 2.53 µM,0.73
same,relative viability,LOU-NH91; first compound 8 µM,0.662
same,relative viability,LXF-289; first compound 0.253 µM,1.05
same,relative viability,LXF-289; first compound 0.8 µM,1.05
same,relative viability,LXF-289; first compound 2.53 µM,1.11
same,relative viability,LXF-289; first compound 8 µM,1.08
same,relative viability,NCI-H1792; first compound 0.253 µM,0.755
same,relative viability,NCI-H1792; first compound 0.8 µM,0.604
same,relative viability,NCI-H1792; first compound 2.53 µM,0.82
same,relative viability,NCI-H1792; first compound 8 µM,0.612
same,relative viability,NCI-H1793; first compound 0.253 µM,0.858
same,relative viability,NCI-H1793; first compound 0.8 µM,0.828
same,relative viability,NCI-H1793; first compound 2.53 µM,0.673
same,relative viability,NCI-H1793; first compound 8 µM,0.57
same,relative viability,NCI-H1915; first compound 0.253 µM,0.984
same,relative viability,NCI-H1915; first compound 0.8 µM,1.07
same,relative viability,NCI-H1915; first compound 2.53 µM,1.13
same,relative viability,NCI-H1915; first compound 8 µM,1.07
same,relative viability,NCI-H1944; first compound 0.253 µM,0.885
same,relative viability,NCI-H1944; first compound 0.8 µM,0.934
same,relative viability,NCI-H1944; first compound 2.53 µM,0.897
same,relative viability,NCI-H1944; first compound 8 µM,0.654
same,relative viability,NCI-H1975; first compound 0.253 µM,0.724
same,relative viability,NCI-H1975; first compound 0.8 µM,0.667
same,relative viability,NCI-H1975; first compound 2.53 µM,0.753
same,relative viability,NCI-H1975; first compound 8 µM,0.592
same,relative viability,NCI-H1993; first compound 0.253 µM,0.744
same,relative viability,NCI-H1993; first compound 0.8 µM,0.734
same,relative viability,NCI-H1993; first compound 2.53 µM,0.683
same,relative viability,NCI-H1993; first compound 8 µM,0.713
same,relative viability,NCI-H2023; first compound 0.253 µM,0.594
same,relative viability,NCI-H2023; first compound 0.8 µM,0.745
same,relative viability,NCI-H2023; first compound 2.53 µM,0.697
same,relative viability,NCI-H2023; first compound 8 µM,0.61
same,relative viability,NCI-H2087; first compound 0.253 µM,0.996
same,relative viability,NCI-H2087; first compound 0.8 µM,0.945
same,relative viability,NCI-H2087; first compound 2.53 µM,1.17
same,relative viability,NCI-H2087; first compound 8 µM,1.08
same,relative viability,NCI-H2170; first compound 0.253 µM,0.881
same,relative viability,NCI-H2170; first compound 0.8 µM,0.781
same,relative viability,NCI-H2170; first compound 2.53 µM,0.84
same,relative viability,NCI-H2170; first compound 8 µM,0.755
same,relative viability,NCI-H358; first compound 0.253 µM,0.902
same,relative viability,NCI-H358; first compound 0.8 µM,0.834
same,relative viability,NCI-H358; first compound 2.53 µM,0.838
same,relative viability,NCI-H358; first compound 8 µM,1.06
same,relative viability,NCI-H520; first compound 0.253 µM,0.88
same,relative viability,NCI-H520; first compound 0.8 µM,0.922
same,relative viability,NCI-H520; first compound 2.53 µM,1.15
same,relative viability,NCI-H520; first compound 8 µM,0.779
same,relative viability,SK-MES-1; first compound 0.253 µM,0.908
same,relative viability,SK-MES-1; first compound 0.8 µM,1.02
same,relative viability,SK-MES-1; first compound 2.53 µM,0.975
same,relative viability,SK-MES-1; first compound 8 µM,0.617
same,relative viability,SW 1573; first compound 0.253 µM,0.775
same,relative viability,SW 1573; first compound 0.8 µM,0.921
same,relative viability,SW 1573; first compound 2.53 µM,1.01
same,relative viability,SW 1573; first compound 8 µM,0.696
